Entries after “also recorded” stand apart in the source; their conditions may differ. Ends that are not written are not given here.
Columns and labels:
microorganisms = test: Morphology, biofilm and growth disruption by peptides (Table 5); format: cell-based; set-up: key: A: Peptide aggregates; B: Less hyphal formation; Clumps; Diffuse clumps and small polyps; F: Diffuse growth; H: Thin; I: Growth inhibition; Microcolony formation; Rippled; Small polyps; Thick; W: Halo formation on top, microlonies on bottom
Source text: In certain embodiments peptides that induce alterations in phenotype or other biological activities can also be used as antimicrobial effector moieties.

bacteria = test: Binding of targeting peptides to microorganisms (Table 3); settings: preferably 1x PBS; for Target(s) (microorganisms bound by the targeting peptide) / Target(s) (microorganism bound by the targeting peptide): peptide binding in aqueous buffers that varied depending on peptide solubility; for Target(s): microorganism bound by the targeting peptide, binding in aqueous buffers chosen by peptide solubility

Substance: PF-425 (MMELVLKTIIGPIVVGVVLRIVDKWLNKDK; Peptide with targeting and/or antimicrobial activity)
- Organism, effect (morphology, biofilm and growth disruption) (microorganisms; C. albicans): C. albicans (A)
- Organism, effect (morphology, biofilm and growth disruption) (microorganisms; C. jejuni): C. jejuni (D)
- Organism, effect (morphology, biofilm and growth disruption) (microorganisms; E. coli): E. coli (C)
- Organism, effect (morphology, biofilm and growth disruption) (microorganisms; E. faecalis): E. faecalis (D)
- Organism, effect (morphology, biofilm and growth disruption) (microorganisms; MRSA): MRSA (D)
- Organism, effect (morphology, biofilm and growth disruption) (microorganisms; P. aeruginosa): P. aeruginosa (A)
- Organism, effect (morphology, biofilm and growth disruption) (microorganisms; S. epidermidis): S. epidermidis (D)
- Organism, effect (morphology, biofilm and growth disruption) (microorganisms; S. pneumoniae): S. pneumoniae (D)
- Target(s) (microorganisms bound by the targeting peptide) (bacteria): S. epidermidis and M. luteus and E. coli and P. aeruginosa and C. albicans and MRSA and S. pneumoniae and C. jeikeium

Substance: PF-429 (AATLICVGSGIMSSL; Peptide with targeting and/or antimicrobial activity)
- Organism, effect (morphology, biofilm and growth disruption) (microorganisms; E. faecalis): E. faecalis (C)
- Organism, effect (morphology, biofilm and growth disruption) (microorganisms; MRSA): MRSA (C)
- Organism, effect (morphology, biofilm and growth disruption) (microorganisms; S. epidermidis): S. epidermidis (C)
- Organism, effect (morphology, biofilm and growth disruption) (microorganisms; S. pneumoniae): S. pneumoniae (M)
- Target(s) (microorganisms bound by the targeting peptide) (bacteria): S. epidermidis; also recorded: S. pneumoniae; also recorded: C. jeikeium

Substance: PF-636 (chain 1 LVRLA; chain 2 LVRLA; Peptide with targeting and/or antimicrobial activity)
- Organism, effect (morphology, biofilm and growth disruption) (microorganisms; B. subtilis): B. subtilis (H)
- Organism, effect (morphology, biofilm and growth disruption) (microorganisms; C. albicans): C. albicans (B)
- Organism, effect (morphology, biofilm and growth disruption) (microorganisms; E. faecalis): E. faecalis (H)
- Organism, effect (morphology, biofilm and growth disruption) (microorganisms; S. pneumoniae): S. pneumoniae (H)
- Target(s) (microorganism bound by the targeting peptide) (bacteria): S. epidermidis and C. albicans and MRSA and S. pneumoniae and E. faecalis

Substance: PF-423 (AGKKERLLSFREQFLNKNKKK; Peptide with targeting and/or antimicrobial activity)
- Organism, effect (morphology, biofilm and growth disruption) (microorganisms; S. pneumoniae): S. pneumoniae (H)
- Target(s) (microorganisms bound by the targeting peptide) (bacteria): S. epidermidis; also recorded: M. luteus; also recorded: E. coli; also recorded: S. pneumoniae; also recorded: E. faecalis; also recorded: C. jeikeium

Substance: PF-215 (ELKITNYNVNTVLYRYYKWGNDLCE; Peptide with targeting and/or antimicrobial activity)
- Organism, effect (microorganisms; M. luteus): M. luteus (T)
- Target(s) (bacteria): S. epidermidis; also recorded: M. luteus; also recorded: P. aeruginosa; also recorded: A. baumannii

Substance: WSRVPGHSDTGWKVWHRW-NH2 [PF-547]
- Organism, effect (morphology, biofilm and growth disruption) (microorganisms; B. subtilis): B. subtilis (I)
- Organism, effect (morphology, biofilm and growth disruption) (microorganisms; E. faecalis): E. faecalis (R)
- Organism, effect (morphology, biofilm and growth disruption) (microorganisms; MRSA): MRSA (M)
- Organism, effect (morphology, biofilm and growth disruption) (microorganisms; S. epidermidis): S. epidermidis (R)
- Target(s) (microorganisms bound by the targeting peptide) (bacteria): S. epidermidis and E. coli and P. aeruginosa and C. albicans and MRSA and S. pneumoniae and E. faecalis

Substance: PF-188 (ARTFAGRLGTRYFGGLMRSTKA; Peptide with targeting and/or antimicrobial activity)
- Organism, effect (microorganisms; C. jeikeium): C. jeikeium (H)
- Target(s) (bacteria): S. epidermidis and M. luteus and E. coli and C. albicans and MRSA and E. faecalis

Substance: PF-694 (chain 1 DLIRPLYSMSAPSVA; chain 2 DLIRPLYSMSAPSVA; Peptide with targeting and/or antimicrobial activity)
- Organism, effect (morphology, biofilm and growth disruption) (microorganisms; MRSA): MRSA (R)
- Organism, effect (morphology, biofilm and growth disruption) (microorganisms; S. pneumoniae): S. pneumoniae (A)
- Target(s) (microorganism bound by the targeting peptide) (bacteria): Mycobacteria spp

Substance: PF-651 (chain 1 PRWPTGAGRHR; chain 2 PRWPTGAGRHR; Peptide with targeting and/or antimicrobial activity)
- Organism, effect (morphology, biofilm and growth disruption) (microorganisms; S. pneumoniae): S. pneumoniae (H)
- Target(s) (microorganism bound by the targeting peptide) (bacteria): Mycobacteria spp

Substance: PF-C064 (DEEALEMGANLYAQFAIDFLNSKK; Peptide with targeting and/or antimicrobial activity)
- Organism, effect (morphology, biofilm and growth disruption) (microorganisms; F. nucleatum): F. nucleatum (T)
- Target(s) (microorganism bound by the targeting peptide) (bacteria): A. naeslundii; also recorded: F. nucleatum; also recorded: P. gingivalis; also recorded: S. mutans; also recorded: T. denticola

Source: patent US9597407B2, “Targeted antimicrobial moieties” (C3 Jian, Inc., priority 2009, dated 2017)
